From ChEMBL document CHEMBL3879899, “Gastrin releasing peptide compounds” (2011)
The source made the active and inactive calls. The calls are words filed in the database; no cut-off is given here. Where a SMILES comes first, the peptide text is derived from it. The star is where a group is joined. Me2Gly = CN(C)CC(=O)*; Acm = CC(=O)NC*

biological target: T1, Gastrin-releasing peptide receptor (Homo sapiens, UniProt P30550); experiment: Binding affinity to GRP receptor in human colon smooth muscle after 1 hr by autoradiography; conditions: not given
Target sequence in this assay (P30550 whole entry, looked up): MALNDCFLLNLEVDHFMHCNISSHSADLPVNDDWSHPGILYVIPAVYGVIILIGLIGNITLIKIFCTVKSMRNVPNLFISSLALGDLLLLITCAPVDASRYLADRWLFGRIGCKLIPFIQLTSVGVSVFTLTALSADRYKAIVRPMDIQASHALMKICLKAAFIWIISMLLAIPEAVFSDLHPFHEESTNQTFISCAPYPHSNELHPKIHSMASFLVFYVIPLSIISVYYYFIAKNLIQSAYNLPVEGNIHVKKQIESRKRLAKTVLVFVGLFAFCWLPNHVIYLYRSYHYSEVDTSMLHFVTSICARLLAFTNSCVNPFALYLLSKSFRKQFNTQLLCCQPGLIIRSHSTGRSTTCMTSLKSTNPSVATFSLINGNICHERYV

For `CCCCC(NC(=O)[C@H](Cc1ccccc1)NC(=O)[C@H](Cc1cnc[nH]1)NC(=O)CCNC(=O)[C@@H](NC(=O)[C@H](C)NC(=O)[C@H](Cc1c[nH]c2ccccc12)NC(=O)[C@H](CCC(N)=O)NC(=O)C(N)Cc1ccc(O)cc1)C(C)C)C(N)=O` (stereo in doubt), the Activity was “Active”.

tested on: not listed separately; experiment: Drug internalization in human PC3 cells after 40 mins by gamma counting method; assay type: ADME, cell-based; conditions: pc-3, 40 min

`CSCC[C@H](NC(=O)[C@H](CC(C)C)NC(=O)[C@H](Cc1cnc[nH]1)NC(=O)CNC(=O)[C@@H](NC(=O)[C@H](C)NC(=O)[C@H](Cc1c[nH]c2ccccc12)NC(=O)[C@H](CCC(N)=O)NC(=O)[C@H](CC(N)=O)NC(=O)CNC(=O)[C@H](CC(C)C)NC(=O)[C@H](CCCN=C(N)N)NC(=O)[C@H](CCC(N)=O)NC(=O)[C@@H]1CCC(=O)N1)C(C)C)C(N)=O` [BOMBESIN] showed a Drug uptake of 59%.

biological target: T2, Neuromedin-B receptor (Rattus norvegicus, UniProt P24053); experiment: Displacement of [125I]-NMB from NMB receptor in rat C6 cells; assay type: cell-based; conditions: not given
T2 sequence (P24053 whole entry): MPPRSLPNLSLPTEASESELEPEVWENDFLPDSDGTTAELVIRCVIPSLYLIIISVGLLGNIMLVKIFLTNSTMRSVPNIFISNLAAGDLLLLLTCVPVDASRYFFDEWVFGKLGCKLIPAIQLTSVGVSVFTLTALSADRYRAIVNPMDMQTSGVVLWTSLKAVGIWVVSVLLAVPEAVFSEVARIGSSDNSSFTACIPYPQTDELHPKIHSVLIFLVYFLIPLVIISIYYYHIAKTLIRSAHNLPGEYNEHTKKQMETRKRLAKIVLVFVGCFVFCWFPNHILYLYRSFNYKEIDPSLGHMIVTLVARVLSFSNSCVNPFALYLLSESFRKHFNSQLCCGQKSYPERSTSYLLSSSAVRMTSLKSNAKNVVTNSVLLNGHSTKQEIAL

`CSCC[C@H](NC(=O)[C@H](CC(C)C)NC(=O)[C@H](Cc1cnc[nH]1)NC(=O)CNC(=O)[C@@H](NC(=O)[C@H](C)NC(=O)[C@@H](N)Cc1c[nH]c2ccccc12)C(C)C)C(N)=O` and `CSCC[C@H](NC(=O)[C@H](CC(C)C)NC(=O)[C@H](Cc1cnc[nH]1)NC(=O)CNC(=O)[C@@H](NC(=O)[C@H](C)NC(=O)[C@H](Cc1c[nH]c2ccccc12)NC(=O)[C@H](CCC(N)=O)NC(=O)CN1CCN(CC(=O)O)CCN(CC(=O)O)CCN(CC(=O)O)CC1)C(C)C)C(N)=O` cannot be ordered by IC50: greater than 800 nM for the first, greater than 250 nM for the second.

Compared with `CSCC[C@H](NC(=O)[C@H](CC(C)C)NC(=O)[C@H](Cc1cnc[nH]1)NC(=O)CNC(=O)[C@@H](NC(=O)[C@H](C)NC(=O)[C@H](Cc1c[nH]c2ccccc12)NC(=O)[C@H](CCC(N)=O)NC(=O)[C@H](CCC(=O)O)NC(=O)[C@H](CCCCN)NC(=O)CNC(=O)[C@H](CSCNC(C)=O)NC(=O)[C@H](CO)NC(=O)CN(C)C)C(C)C)C(N)=O`, `CSCC[C@H](NC(=O)[C@H](CC(C)C)NC(=O)[C@H](Cc1cnc[nH]1)NC(=O)CNC(=O)[C@@H](NC(=O)[C@H](C)NC(=O)[C@H](Cc1c[nH]c2ccccc12)NC(=O)[C@H](CCC(N)=O)NC(=O)[C@H](CC(N)=O)NC(=O)CNC(=O)[C@H](Cc1ccc(O)cc1)NC(=O)[C@H](CCCNC(=N)N)NC(=O)[C@H](CCC(N)=O)NC(=O)[C@H](CCC(=O)O)NC(=O)[C@H]1CCCN1)C(C)C)C(N)=O` is 18-fold lower in IC50: 60 nM for the first, 3.36 nM for the second. The second is the more potent here.

`CSCC[C@H](NC(=O)[C@H](CC(C)C)NC(=O)[C@H](Cc1cnc[nH]1)NC(=O)CNC(=O)[C@@H](NC(=O)[C@H](C)NC(=O)[C@H](Cc1c[nH]c2ccccc12)NC(=O)[C@H](CCC(N)=O)NC(=O)[C@H]1CC[C@H](CNC(=O)[C@H]2CC[C@H](CNC(=O)CN3CCN(CC(=O)O)CCN(CC(=O)O)CCN(CC(=O)O)CC3)CC2)CC1)C(C)C)C(N)=O` and `CSCC[C@H](NC(=O)[C@H](Cc1ccccc1)NC(=O)[C@H](Cc1c[nH]cn1)NC(=O)CNC(=O)[C@@H](NC(=O)[C@H](C)NC(=O)[C@H](Cc1c[nH]c2ccccc12)NC(=O)[C@H](CC(C)C)NC(=O)c1ccc(NC(=O)CNC(=O)CN2CCN(CC(=O)O)CCN(CC(=O)O)CCN(CC(=O)O)CC2)cc1)C(C)O)C(N)=O` (stereo partly specified) cannot be ordered by IC50: 0.3 nM for the first, 0.07 to 0.8 nM for the second.

biological target: T1, Gastrin-releasing peptide receptor; experiment: Displacement of [125I]-BBN from GRPR in human PC3 cells after 1 hr by compuGamma counting or microplate scintillation counting method; assay type: cell-based, PC-3; conditions: not given
Target sequence in this assay (P30550 whole entry): as the sequence (P30550 whole entry, looked up) above

`CSCC[C@H](NC(=O)[C@H](CC(C)C)NC(=O)[C@H](Cc1cnc[nH]1)NC(=O)CNC(=O)[C@@H](NC(=O)[C@H](C)NC(=O)[C@@H](N)Cc1c[nH]c2ccccc12)C(C)C)C(N)=O` and `CSCC[C@H](NC(=O)[C@H](CC(C)C)NC(=O)[C@H](Cc1cnc[nH]1)NC(=O)CNC(=O)[C@@H](NC(=O)[C@H](C)NC(=O)[C@H](Cc1c[nH]c2ccccc12)NC(=O)[C@H](CCC(N)=O)NC(=O)CN1CCN(C(=O)CN2CCN(CC(=O)O)CCN(CC(=O)O)CCN(CC(=O)O)CC2)CC1)C(C)C)C(N)=O` cannot be ordered by IC50: greater than 800 nM for the first, greater than 50 nM for the second.

`CSCC[C@H](NC(=O)[C@H](CC(C)C)NC(=O)[C@H](Cc1cnc[nH]1)NC(=O)CNC(=O)[C@@H](NC(=O)[C@H](C)NC(=O)[C@H](Cc1c[nH]c2ccccc12)NC(=O)[C@H](CCC(N)=O)NC(=O)[C@H](CCCNC(=N)N)NC(=O)[C@H](CCCCNC(=O)CNC(=O)CN1CCN(CC(=O)O)CCN(CC(=O)O)CCN(CC(=O)O)CC1)NC(=O)COCCOCCOCC(=O)N[C@H]1CC[C@]2(C)[C@H]3C[C@H](O)[C@]4(C)[C@@H]([C@H](C)CCC(=O)O)CC[C@H]4[C@@H]3CC[C@]2(C)C1)C(C)C)C(N)=O` and `CSCC[C@H](NC(=O)[C@H](CC(C)C)NC(=O)[C@H](Cc1cnc[nH]1)NC(=O)CNC(=O)[C@@H](NC(=O)[C@H](C)NC(=O)[C@H](Cc1c[nH]c2ccccc12)NC(=O)[C@H](CCC(N)=O)NC(=O)[C@H](CCCNC(=N)N)NC(=O)[C@H](CCCCNC(=O)COCCOCCOCC(=O)N[C@H]1CC[C@]2(C)[C@H]3C[C@H](O)[C@]4(C)[C@@H]([C@H](C)CCC(=O)O)CC[C@H]4[C@@H]3CC[C@]2(C)C1)NC(=O)CNC(=O)CN1CCN(CC(=O)O)CCN(CC(=O)O)CCN(CC(=O)O)CC1)C(C)C)C(N)=O` cannot be ordered by IC50: greater than 50 nM for the first, greater than 50 nM for the second.

`CSCC[C@H](NC(=O)[C@H](CC(C)C)NC(=O)[C@H](Cc1cnc[nH]1)NC(=O)CNC(=O)[C@@H](NC(=O)[C@H](C)NC(=O)[C@H](Cc1c[nH]c2ccccc12)NC(=O)[C@H](CCC(N)=O)NC(=O)[C@@H]1CSC2CC[C@H](NC(=O)CN3CCN(CC(=O)O)CCN(CC(=O)O)CCN(CC(=O)O)CC3)C(=O)N21)C(C)C)C(N)=O` (stereo partly specified) and `CSCC[C@H](NC(=O)[C@H](CC(C)C)NC(=O)[C@H](Cc1cnc[nH]1)NC(=O)CNC(=O)[C@@H](NC(=O)[C@H](C)NC(=O)[C@H](Cc1c[nH]c2ccccc12)NC(=O)[C@H](CCC(N)=O)NC(=O)[C@@H]1Cc2cccc3c2N1C(=O)[C@@H](NC(=O)CN1CCN(CC(=O)O)CCN(CC(=O)O)CCN(CC(=O)O)CC1)CC3)C(C)C)C(N)=O` cannot be ordered by IC50: greater than 50 nM for the first, greater than 50 nM for the second.

`CSCC[C@H](NC(=O)[C@H](CC(C)C)NC(=O)[C@H](Cc1cnc[nH]1)NC(=O)CNC(=O)[C@@H](NC(=O)[C@H](C)NC(=O)[C@H](Cc1c[nH]c2ccccc12)NC(=O)[C@H](CCC(N)=O)NC(=O)C[C@@H]1NC(=O)C2C[C@H](NC(=O)CN3CCN(CC(=O)O)CCN(CC(=O)O)CCN(CC(=O)O)CC3)CN2C1=O)C(C)C)C(N)=O` (stereo partly specified) and `CSCC[C@H](NC(=O)[C@H](CC(C)C)NC(=O)[C@H](Cc1cnc[nH]1)NC(=O)CNC(=O)[C@@H](NC(=O)[C@H](C)NC(=O)[C@H](Cc1c[nH]c2ccccc12)NC(=O)[C@H](CCC(N)=O)NC(=O)CN1CN(c2ccccc2)C2(CCN(C(=O)CN3CCN(CC(=O)O)CCN(CC(=O)O)CCN(CC(=O)O)CC3)CC2)C1=O)C(C)C)C(N)=O` cannot be ordered by IC50: greater than 50 nM for the first, greater than 50 nM for the second.

`CSCC[C@H](NC(=O)[C@H](CC(C)C)NC(=O)[C@H](Cc1cnc[nH]1)NC(=O)CNC(=O)[C@@H](NC(=O)[C@H](C)NC(=O)[C@H](Cc1c[nH]c2ccccc12)NC(=O)[C@H](CCC(N)=O)NC(=O)[C@H](CC(N)=O)NC(=O)CNC(=O)[C@H](Cc1ccc(O)cc1)NC(=O)[C@H](CCCNC(=N)N)NC(=O)[C@H](CCC(N)=O)NC(=O)[C@H](CCC(=O)O)NC(=O)[C@H]1CCCN1)C(C)C)C(N)=O` and `CSCC[C@H](NC(=O)[C@H](CC(C)C)NC(=O)[C@H](Cc1cnc[nH]1)NC(=O)CNC(=O)[C@@H](NC(=O)[C@H](C)NC(=O)[C@H](Cc1c[nH]c2ccccc12)NC(=O)[C@H](CCC(N)=O)NC(=O)[C@H](CCCCN)NC(=O)[C@H](CO)NC(=O)CNC(=O)[C@H](CSCNC(C)=O)NC(=O)[C@H](CO)NC(=O)CN(C)C)C(C)C)C(N)=O` (Me2Gly-SC(Acm)GSKQWAVGHLM-NH2) are within 1.5-fold of each other in IC50: 2.2 nM for the first, 2 nM for the second.

`CSCC[C@H](NC(=O)[C@H](CC(C)C)NC(=O)[C@H](Cc1cnc[nH]1)NC(=O)CNC(=O)[C@@H](NC(=O)[C@H](C)NC(=O)[C@H](Cc1c[nH]c2ccccc12)NC(=O)[C@H](CCC(N)=O)NC(=O)Cn1cnc2ccc(N3CCN(C(=O)CN4CCN(CC(=O)O)CCN(CC(=O)O)CCN(CC(=O)O)CC4)CC3)cc2c1=O)C(C)C)C(N)=O` showed an IC50 greater than 50 nM.

same assay, conditions: pc-3

Compound `CSCC[C@H](NC(=O)[C@H](CC(C)C)NC(=O)[C@H](Cc1c[nH]cn1)NC(=O)CNC(=O)[C@@H](NC(=O)[C@H](C)NC(=O)[C@H](Cc1c[nH]c2ccccc12)NC(=O)[C@H](CCC(N)=O)NC(=O)CN1CCCC[C@H](NC(=O)CN2CCN(CC(=O)O)CCN(CC(=O)O)CCN(CC(=O)O)CC2)C1=O)C(C)C)C(N)=O` has an IC50 of 50 nM.

tested on: not listed separately; experiment: Drug efflux in human PC3 cells after 2 hrs by gamma counting method; assay type: ADME, cell-based; conditions: pc-3, 2 h

For `CSCC[C@H](NC(=O)[C@H](CC(C)C)NC(=O)[C@H](Cc1cnc[nH]1)NC(=O)CNC(=O)[C@@H](NC(=O)[C@H](C)NC(=O)[C@H](Cc1c[nH]c2ccccc12)NC(=O)[C@H](CCC(N)=O)NC(=O)[C@H](CC(N)=O)NC(=O)CNC(=O)[C@H](CC(C)C)NC(=O)[C@H](CCCN=C(N)N)NC(=O)[C@H](CCC(N)=O)NC(=O)[C@@H]1CCC(=O)N1)C(C)C)C(N)=O` [BOMBESIN], the Drug transport was 35%.
